According to article PMC3492160, “Identification of white campion (Silene latifolia) guaiacol O-methyltransferase involved in the biosynthesis of veratrole, a key volatile for pollinator attraction” (BMC Plant Biology, 2012):

Tests used:
SlGOMT2 = tested on: T1, SlGOMT2; assay: radiometric methylation assay with […]-SAM, ethyl acetate extraction, double reciprocal plot; type: biochemical, Silene latifolia; conditions: SAM 200 μM constant; 5 mM MgCl2; Tris-HCl pH 7.5; room temperature; apparent Km
T1 construct: no tag removal described

SlGOMT1 = tested on: T2, SlGOMT1; assay: as above; type: biochemical, Silene latifolia; conditions: SAM 200 μM constant; 5 mM MgCl2; Tris-HCl pH 7.5; room temperature; apparent Km
T2 construct: no tag removal described

Km (SlGOMT2): 501 ± 198 µM
Km (SlGOMT1): 9.79 ± 1.51 µM
SMILES: COc1ccccc1O [guaiacol]
